Assay [1] relates to CLL cells. As to the kind of experiment: Assay of cellular apoptosis (annexin V/PI flow cytometry) in CLL cells. Particulars: for apoptosis in combination with IR284: with PDE inhibitor IR284 (100 nM), compared to IR284 alone. Format: cell-based, human. The protocol: (§1) FIG. 7 illustrates apoptosis of CLL cells (data from Aggressive and Indolent CLL cells), left panel, and normal B-cells (n=3), right panel, in response to 1 μM VIP+100 nM IR284. Statistical significance, determined by Student's t-test, is shown (*=P<0.05) compared to cells treated only with 100 nM IR284.
(§2) Cycle thresholds (lower value denotes higher expression) normalized to 28S. Statistical significance was determined by Student's t-test and is depicted by (***) for P<0.001 compared to normal. […] Statistical significance was determined by paired t test with (*) P<0.05 compared to IR284 alone.
(§3) Flow cytometry was used to detect annexin V/fluorescein isothiocyanate (FITC) and propidium iodide (PI) staining to determine the apoptotic population of treated cells. CLL-cells or normal PBMC (1,000,000/ml) in […]+10% FBS were incubated for 48 hr in standard culture conditions with or without drugs and then assayed for annexinV/PI staining per manufacturer's protocol using a FACScan (Becton Dickinson Biosciences, San Jose, Calif.) flow cytometer.

Assay [2] relates to CLL cells. As to the kind of experiment: cAMP accumulation assay (cAMP radioimmunoassay). The format is cell-based, human. The conditions noted are these: aggressive CLL cells (n=8); 1 μM VIP + 100 nM IR284, relative to 100 nM IR284 alone; P<0.05. The protocol: The results are expressed relative to cAMP levels in cells treated only with 100 nM IR284, a PDE4/7 inhibitor. Statistical significance was determined by paired t test and is shown (*=P<0.05) compared to cells treated only with IR284.
as §2
One million CLL-cells or normal PBMC/ml in […] buffer+10% FBS were plated in a 12-well cell culture plate and incubated for 20 min at 37° C. in air plus 5% CO2 with a dual PDE4/7 inhibitor (IR284). VIP or ACTH were then added to the 12-well culture plate and incubated for 10 min at 37° C. in air plus 5% CO2. The cells were then centrifuged at 1200 rpm for 5 min at 4° C. The media was aspirated and 50 μl of 7.5% trichloroacetic acid (TCA) was added to each cell pellet to release cAMP from the cells. The TCA-suspended sample was diluted in 1 ml 10 mM sodium acetate and acetylated with 20 ul triethylamine and 10 ul acetic anhydride. The competitive binding assay consists of 50 μl of diluted, acetylated sample, 25 μl AMP antibody and 25 μl ^125I-labeled cAMP (Perkin Elmer). […]
(Changes in cAMP serve as a functional read-out for many G protein-coupled receptors.)

The next assay concerns normal B-cells. As to the kind of experiment: Assay of cellular apoptosis (annexin V/PI flow cytometry) in normal B-cells. Format: cell-based, human. The conditions noted are these: normal B-cells (n=3). The protocol:
as §1, §3
A general note: In flow cytometry, cells or beads pass a laser one at a time.

Assay [3] concerns NK.tert bone marrow-derived stromal cells. The experiment in a line: Stromal cell proliferation ([3H] thymidine) with conditioned media from indolent CLL cultures. Particulars: conditioned media from indolent CLL cells incubated 24 hr with IR284 (100 nM) or VIP. The format is cell-based, human. The protocol:
Mononuclear cells derived from the blood of Indolent CLL patients were grown in tissue culture media (RPMI 1640+10% Heat-Inactivated Fetal Bovine Serum) and incubated for 24 hr in the absence of any drug (“untreated CLL”), in the presence of the phosphodiesterase 4/7 inhibitor IR284 (100 nM) or the VIPR agonist VIP […]. In the 24 hr incubation period products excreted from the cells in response to the treatments accumulate in the media, which is called “conditioned media” (CM). CM was harvested from the cell cultures by subjecting them to centrifugation at 233 rcf for 10 minutes at 4° C. to pellet cells and debris. The liquid portion was removed and used as CM. To assess the impact of CM from the indolent CLL cultures upon the proliferation of bone marrow-derived stromal cells (which make up the supportive microenvironment of CLL in vivo), CM was added to NK.tert bone marrow-derived stromal cells along with [3H] thymidine to assess DNA synthesis/cell proliferation

Assay [4] relates to CLL cells. The experiment in a line: Spontaneous apoptosis of CLL cells (Annexin V surface staining). The format is cell-based, human. An excerpt:
FIG. 12 illustrates that the peptide hormone insulin-like peptide 3 (INSL3) protects CLL cells from spontaneous apoptosis.

For assay [5], the target named is T1, LGR8 (Homo sapiens, UniProt Q8WXD0).
T1 construct: expressed in transfected cells; host or cells: 293T cells
The conditions noted are these: recombinant LGR8 in 293T cells; cited from earlier work.

The subject of assay [6] is LGR8. Particulars: germ cells; via inhibitory G protein Gi; cited from earlier work.
Assay [7] concerns arrested oocytes in preovulatory follicles. The conditions noted are these: in vitro and in vivo; cited from earlier work.
The subject of the next assay is male germ cell. The conditions noted are these: in vivo; cited from earlier work.
The mark [8] stands for this setting: indolent CLL cells, with or without VIP or ACTH, with a phosphodiesterase inhibitor.

Entries after “also recorded” stand apart in the source; their conditions may differ. Where no end group is shown, it is not given here.

T1 sequence (Q8WXD0 whole entry): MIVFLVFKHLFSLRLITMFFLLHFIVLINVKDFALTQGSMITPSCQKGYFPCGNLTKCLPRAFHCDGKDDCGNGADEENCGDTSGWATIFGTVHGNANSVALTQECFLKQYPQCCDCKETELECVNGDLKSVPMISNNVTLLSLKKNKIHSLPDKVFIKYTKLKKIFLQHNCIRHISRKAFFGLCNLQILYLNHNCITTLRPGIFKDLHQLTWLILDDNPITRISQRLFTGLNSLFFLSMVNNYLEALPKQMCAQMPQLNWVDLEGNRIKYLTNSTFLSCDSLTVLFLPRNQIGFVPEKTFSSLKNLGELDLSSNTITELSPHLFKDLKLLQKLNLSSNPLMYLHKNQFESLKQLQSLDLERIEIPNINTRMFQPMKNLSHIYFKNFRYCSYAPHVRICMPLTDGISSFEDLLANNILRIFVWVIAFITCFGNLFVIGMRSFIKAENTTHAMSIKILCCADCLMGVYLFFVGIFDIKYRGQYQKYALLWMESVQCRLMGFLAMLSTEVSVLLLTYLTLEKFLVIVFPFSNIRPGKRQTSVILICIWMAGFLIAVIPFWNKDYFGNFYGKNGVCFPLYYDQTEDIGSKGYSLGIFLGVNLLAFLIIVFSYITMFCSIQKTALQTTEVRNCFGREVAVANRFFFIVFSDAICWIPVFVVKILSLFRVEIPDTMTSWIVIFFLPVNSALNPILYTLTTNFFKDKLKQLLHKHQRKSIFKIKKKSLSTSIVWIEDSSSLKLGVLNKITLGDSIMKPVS

As to “ACTH: a melanocortin 2 receptor [MC2R] agonist, purchased from GenWay (SYSMEHFRWGKPVGKKRRPVKVYPNGAEDESAEAFPLEF; Corticotropin; UniProt P01189 138-176, looked up)”, the apoptosis result was “promote apoptosis” in the assay with CLL cells [1] (aggressive CLL cells, 48 hr) and “not indolent CLL” with CLL cells [1] (setting [8]). The “apoptosis in combination with IR284” value in the assay with CLL cells [1] (aggressive CLL cells) is listed as “increase apoptosis”.

“VIP: vasoactive intestinal peptide receptor agonist, purchased from Tocris Bioscience (HSDAVFTDNYTRLRKQMAVKKYLNSILN; ends and bridges not checked; UniProt P01282 125-152, looked up)”: the cAMP accumulation entry in the assay with CLL cells [2] is “significantly enhanced”. Besides, the apoptosis entry in the assay with CLL cells [1] (CLL cells, P<0.05, n=3) is “induced apoptosis”; with CLL cells [1] (aggressive CLL cells, 48 hr), “increases apoptosis; also recorded: promote apoptosis”; in the assay with CLL cells [1] (setting [8]) it was “not indolent CLL”; in the assay on normal B-cells it was “does not promote apoptosis”. Besides, the “apoptosis in combination with IR284” value in the assay with CLL cells [1] (aggressive CLL cells) is reported as “significantly enhanced; also recorded: increase apoptosis”. The “proliferation of stromal cells (DNA synthesis)” value in assay [3] was “suppressed proliferation”.

In the case of `COc1ccc(C2=NN(C3CCN(C(=O)N4CCOCC4)CC3)C(=O)C3CC=CCC23)cc1Cl` (stereo not shown) [IR284, (4-(3-chloro-4-methoxyphenyl)-2-(1-morpholine-4-carbonyl)piperadin-4-yl)-4a, 5,8,8a-tetrahydrophthalazin-1(2H)-one], the “proliferation of stromal cells (DNA synthesis)” value in assay [3] is “suppressed proliferation”.

B1: INSL3: peptide hormone insulin-like peptide 3, LGR8 agonist (peptide, UniProt P51460 21-55; P51460 106-131, looked up)
Insulin-like 3 B chain: LGPAPTPEMREKLCGHHFVRALVRVCGGPRWSTEA
Insulin-like 3 A chain: AAATNPARYCCLSGCTQQDLLTLCPY
Consider B1, for which, in the assay on CLL cells [4], the protection from apoptosis result is on record as “protects CLL cells from programmed cell death”. Further, in the assay with LGR8 [5], the “adenylyl cyclase activation / intracellular cAMP” value was “increases accumulation of intracellular cAMP”. Further, in the assay with LGR8 [6], the cAMP production entry is reported as “decreases in cAMP production”. Also, the “meiotic progression of arrested oocytes” value in assay [7] is reported as “initiates meiotic progression”. Further, the “male germ cell apoptosis” value in the assay with male germ cell is reported as “suppresses male germ cell apoptosis”.

These data come from patent US10107816B2, “G-protein coupled receptor-associated diagnostics and therapeutics for B-cell chronic lymphocytic leukemia” (THE REGENTS OF THE UNIVERSITY OF CALIFORNIA, priority 2013, dated 2018).
